Data reported in publication PMC10115881, “Disrupting the α-synuclein-ESCRT interaction with a peptide inhibitor mitigates neurodegeneration in preclinical models of Parkinson’s disease” (Nature Communications, 2023).
No end group written: not given here. *: point of attachment. FITC = O=C1OC2(c3ccc(O)cc3Oc3cc(O)ccc32)c2ccc(NC(=S)*)cc21

Assays:
A53T a-syn = A53T a-syn protein level in HEK293 cells by immunoblot; format: cell-based, human
Procedure: Infected or transfected cells were scraped from six-well dishes and lysed with lysis buffer (50 mM Tris-HCl pH 7.4, 1% Nonidet P-40, 150 mM NaCl, 1 mM EDTA, 1× protease inhibitor mixture (Sigma)) for 30 min at 4 °C. The insoluble pellet was removed following a 10,000 rpm spin for 5 min at 4 °C. Lysates were analyzed by SDS-PAGE/immunoblot using 4–20% Mini-PROTEAN Tris-glycine gels (Bio-Rad), transferred to polyvinylidene fluoride (PVDF) membranes, and blocked in 5% milk containing PBS-Tween-20 (0.1%) for 1 h. PVDF membranes were then incubated with specified primary antibodies followed by incubation with horseradish peroxidase-conjugated secondary antibodies (anti-mouse HRP-linked, Cell Signaling, catalog #7076, 1:5000; anti-rabbit HRP-linked, Cell Signaling, catalog #7074, 1:5000) and detected using enhanced chemiluminescence (GE Healthcare). Anti-a-syn antibody (clone 42) was obtained from BD Biosciences (catalog #610787, 1:1000). Anti-LAMP1 antibody was obtained from Abcam (catalog #ab24170, 1:500). Anti-beta-actin antibody was obtained from Cell Signaling (13E5) (catalog #4970, 1:1000). Anti-CD63 antibody was obtained from R&D Systems (catalog #MAB50482-SP, 1:1000).

VPS4 = settings: motif-domain interaction; read-out: CHMP2B-VPS4 interaction affinity; cited from earlier work
Excerpt: CHMP2B has been reported to bind to Vacuolar Protein Sorting 4 (VPS4), an AAA-type adenosine triphosphatase. This interaction is mediated by the C-terminal MIM on CHMP2B and a Microtubule Interacting and Trafficking (MIT) domain on VPS4. […] However, we also noted that many CHMP proteins can self-interact and have been reported to multimerize, which may contribute to their function. In particular, CHMP2B can self-interact[30] and is thought to polymerize at the budding of membranes during endosome formation. ...

[1] = tested on: A53T a-syn expressing HEK293 cells; experiment: Cell Titer-Glo cell viability, A53T a-syn expressing cells; format: cell-based, human; settings: A53T a-syn cells
Procedure: Oligonucleotides encoding the specific peptides were synthesized and individually cloned into the pLJM1 nGFP lentiviral vector. HEK293T cells were infected with individual constructs, and cell viability was assessed using Cell Titer-Glo luminescent assay (Promega) at 72 h post infection.
Cells were trypsinized from subconfluent cultures as described earlier, suspended in culture media, and then seeded into triplicate wells of a 96-well plate (100 µl/well) at a density of 1.5 × 10^4 cells per well with standard culture conditions of 5% CO2 at 37 °C. Cells were infected with lentivirus expressing peptide at a MOI of 5 for 72 h or transfected with plasmid for 72 h. Cell Titer-Glo reagent was added to each well (30 µL), according to the manufacturer’s protocol and […].

[2] = target: T1, purified VPS4B (Vacuolar Protein Sorting 4) (UniProt O75351 1-444); experiment: not stated; 'our affinity measurements' of PDpep1.3 with VPS4 (Fig. S1G); settings: both partners purified
T1 construct: VPS4B expressed as a His-tagged Sumo construct in a pRSet B vector; The results speak of 'VPS4'; VPS4B is the only VPS4 protein whose purification is described; source: E. coli Overexpress C41, purified (Ni-NTA)
T1 sequence (looked up): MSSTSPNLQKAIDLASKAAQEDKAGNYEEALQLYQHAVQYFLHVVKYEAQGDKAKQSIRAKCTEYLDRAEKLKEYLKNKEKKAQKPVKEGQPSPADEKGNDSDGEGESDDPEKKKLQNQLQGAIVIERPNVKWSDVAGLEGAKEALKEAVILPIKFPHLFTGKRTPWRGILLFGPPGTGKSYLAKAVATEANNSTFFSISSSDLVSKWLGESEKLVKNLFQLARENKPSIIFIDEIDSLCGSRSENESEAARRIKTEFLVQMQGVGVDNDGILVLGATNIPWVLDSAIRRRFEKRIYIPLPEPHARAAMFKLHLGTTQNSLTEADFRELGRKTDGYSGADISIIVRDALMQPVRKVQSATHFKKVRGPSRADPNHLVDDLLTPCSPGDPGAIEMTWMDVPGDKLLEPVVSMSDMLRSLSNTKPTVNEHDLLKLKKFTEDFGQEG

[3] = target: T2, purified recombinant CHMP2B (UniProt Q9UQN3 1-213); experiment: fluorescence polarisation; FITC-peptide constant at 50 nM, CHMP2B serially diluted 1:1 from 30 μM; 50 mM Na phosphate pH 5.5 or 20 mM Na acetate pH 5.5, 0.5 mM TCEP, 0.005% Triton-X-100; 30 min at room temperature; settings: both partners purified
T2 construct: CHMP2B from the vector pET-DEST42 CHMP2B; eluted as a 26 kDa monomer; Removal of tags is not described; source: E. coli Overexpress C41, inclusion bodies, purified (Ni-NTA in guanidine HCl, dialysis, SEC)
T2 sequence (Q9UQN3 whole entry): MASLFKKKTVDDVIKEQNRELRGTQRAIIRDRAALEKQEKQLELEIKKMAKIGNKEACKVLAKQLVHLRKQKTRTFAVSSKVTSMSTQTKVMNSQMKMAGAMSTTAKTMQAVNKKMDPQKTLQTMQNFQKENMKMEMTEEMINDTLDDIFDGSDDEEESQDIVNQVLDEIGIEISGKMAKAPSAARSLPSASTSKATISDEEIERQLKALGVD

[4] = target: T3, purified VPS4B (Vacuolar Protein Sorting 4) (UniProt O75351 1-444); experiment: FP
T3 chain: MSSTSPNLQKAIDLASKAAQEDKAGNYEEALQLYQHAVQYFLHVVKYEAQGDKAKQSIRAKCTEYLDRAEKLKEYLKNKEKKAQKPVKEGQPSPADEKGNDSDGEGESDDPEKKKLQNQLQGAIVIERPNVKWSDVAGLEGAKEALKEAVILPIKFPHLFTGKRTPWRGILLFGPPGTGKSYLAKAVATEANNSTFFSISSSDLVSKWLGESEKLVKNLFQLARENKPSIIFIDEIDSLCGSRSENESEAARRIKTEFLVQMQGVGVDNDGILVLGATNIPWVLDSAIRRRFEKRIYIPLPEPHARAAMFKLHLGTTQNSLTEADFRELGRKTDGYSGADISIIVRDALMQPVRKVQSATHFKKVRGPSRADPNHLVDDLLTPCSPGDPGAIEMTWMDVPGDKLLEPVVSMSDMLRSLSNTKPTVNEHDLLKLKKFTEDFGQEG

Row | Molecule | Effect on A53T a-syn protein level (A53T a-syn) | Kd (VPS4) | Effect on cell survival/viability [1] | Kd [2] | Kd [3] | Kd [4]
1 | CHMP2B: CHarged Multivesicular body Protein 2B, full-length | reduces a-syn levels | 178 µM | rescues a-syn cytotoxicity | – | – | –
2 | {FITC}-DEEIERQLKALG (stretch of the C-terminal region (MIM) of CHMP2B; also called FITC-PDpep1.3; source: synthetic peptide (LifeTein)) [FITC-labeled PDpep1.3 peptide] | – | – | – | > 100 µM | 1.8 µM | ~200 µM
